Laboratory results taken from patent EP4656642A1, “ESTROGEN RECEPTOR PROTEOLYSIS TARGETING CHIMERA COMPOUND AND USE THEREOF” (GAN & LEE PHARM CO., LTD, priority 2023, dated 2024).

How the values were obtained:
Assay type in all cases: cell-based
T-47D cells = experiment: Inhibition of cell proliferation in T-47D cells (CCK-8, 6 days); conditions: 6 days of treatment
Text: Test Example 2: Inhibitory effect of the PROTAC compounds provided in the present disclosure on cell proliferation in T-47D cells (source ATCC)
The complete medium required for T-47D cells was 1640 ( ATCC, Product number: A10491-01) basal medium containing 10% fetal bovine serum. T-47D cells were inoculated in 96-well plates at a density of 3,000 cells/well, and different concentrations of the PROTAC compounds 1-55 provided in the examples of the present disclosure and a positive control sample ARV-471 (source: Innochem) were prepared to treat cells, and the cells were treated at 37°C in a cell culture incubator with 5% CO2 for 6 days. Cell viability was detected using a CCK-8 kit (Beyotime, Product number: C0040) according to the manufacturer's instructions. […] Table 2 IC50 values for inhibition of the proliferation of T-47D cells by the PROTAC compounds provided by the present disclosure and the positive control sample

MCF-7 cells = experiment: Inhibition of cell proliferation of MCF-7 cells (CCK-8, 9 days)
Method in brief: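 MCF-7 cells seeded at 800 cells/well in DMEM with 10% FBS, exposed to a range of compound concentrations for 9 days at 37°C, 5% CO2. Viability read by CCK-8; IC50 derived for proliferation inhibition.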

ERα [1] = molecular target: T1, ERα (Homo sapiens, UniProt P03372); experiment: Degradation of ERα in MCF-7 cells (immunoblotting, 4 h)
T1 sequence (P03372 1-595): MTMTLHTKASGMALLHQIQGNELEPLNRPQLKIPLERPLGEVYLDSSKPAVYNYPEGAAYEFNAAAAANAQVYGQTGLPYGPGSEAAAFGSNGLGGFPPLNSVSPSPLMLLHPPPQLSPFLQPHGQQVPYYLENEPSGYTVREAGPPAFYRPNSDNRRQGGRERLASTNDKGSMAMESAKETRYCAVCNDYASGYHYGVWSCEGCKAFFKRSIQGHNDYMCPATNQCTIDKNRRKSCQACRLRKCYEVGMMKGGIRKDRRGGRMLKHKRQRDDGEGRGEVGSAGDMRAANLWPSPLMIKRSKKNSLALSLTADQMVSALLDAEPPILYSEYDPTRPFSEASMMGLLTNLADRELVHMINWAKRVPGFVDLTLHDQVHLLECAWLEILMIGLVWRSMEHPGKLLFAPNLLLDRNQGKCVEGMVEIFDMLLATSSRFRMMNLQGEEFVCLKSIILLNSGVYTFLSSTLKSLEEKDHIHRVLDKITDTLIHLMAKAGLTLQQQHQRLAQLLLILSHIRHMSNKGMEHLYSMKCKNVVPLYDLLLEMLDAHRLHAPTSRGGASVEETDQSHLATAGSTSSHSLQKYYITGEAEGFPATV
Method in brief: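 MCF-7 cells treated 4 h at 37°C with compounds at 0.15-1000nM final. ERα in lysates measured by immunoblot, with band grayscale normalized to an internal reference protein. Degradation rate calculated against DMSO-treated control.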

ERα [2] = molecular target: T1, ERα; experiment: Degradation of ERα in T-47D cells (immunoblotting, 4 h); design: host or cells: T-47D
Method in brief: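 T-47D cells were treated with compound (final 0.15-1000 nM, DMSO) for 4 h at 37°C, 5% CO2. Cells were lysed in RIPA buffer with protease inhibitor, and ERα protein in the cleared lysate was measured by immunoblotting.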

[3] = 9 days of treatment, CCK-8, Table 5
[4] = treated for 9 days, CCK-8 kit (Table 6)

Row | Structure (SMILES) | IC50 (T-47D cells; Table 2) | IC50 (MCF-7 cells; [3]) | Degradation rate (%) of ERα in MCF-7 cells (ERα [1]; 10nM compound) | Degradation rate (%) of ERα in T-47D cells (ERα [2]; 10nM compound) | Degradation rate (%) of ERα in MCF-7 cells (ERα [1]; 1nM compound) | Degradation rate (%) of ERα in T-47D cells (ERα [2]; 1nM compound) | IC50 (T-47D cells; Table 3) | IC50 (MCF-7 cells; [4])
1 | O=C1CCC(N2C(=O)c3cc4c(cc3C2=O)C2(CCN(C3CCC5(CC3)CCN(c3ccc(C6c7ccc(O)cc7CCC6c6ccccc6)cc3)CC5)CC2)CO4)C(=O)N1 (centres unmarked) [A18] | 68 nM | 170 nM | 20% | 14% | – | – | – | –
2 | O=C1CCC(N2Cc3cc4c(cc3C2=O)OC2(CC4)CCN(C3CCC4(CC3)CN(c3ccc(C5c6ccc(O)cc6CCC5c5ccccc5)cc3)C4)CC2)C(=O)N1 (centres unmarked) [A23] | 9 nM | 10 nM | 14% | 53% | – | – | – | –
3 | O=C1CCC(N2Cc3cc4c(cc3C2=O)CCC2(CN(C3CCC5(CC3)CCN(c3ccc([C@@H]6c7ccc(O)cc7CC[C@@H]6c6ccccc6)cc3)CC5)C2)O4)C(=O)N1 (some centres unmarked) [A33] | 9.2 nM | 30 nM | 26% | 56% | -7% | 12% | – | –
4 | O=C1CCC(N2C(=O)c3cc4c(cc3C2=O)C2(CCN(C3CC5(CCN(c6ccc([C@@H]7c8ccc(O)cc8CC[C@@H]7c7ccccc7)cc6)CC5)C3)CC2)CO4)C(=O)N1 (some centres unmarked) [A34] | – | – | 13% | 28% | 4% | 5% | 68 nM | 174 nM
5 | O=C1CCC(N2C(=O)c3cc4c(cc3C2=O)C2(CCN(CC3CCC5(CC3)CCN(c3ccc([C@@H]6c7ccc(O)cc7CC[C@@H]6c6ccccc6)cc3)CC5)CC2)CO4)C(=O)N1 (some centres unmarked) [A36] | – | – | -14% | -23% | 11% | 2% | 21 nM | 270 nM
6 | O=C1CCC(N2Cc3cc4c(cc3C2=O)OC2(CC4)CN(CC3CCC4(CC3)CCN(c3ccc([C@@H]5c6ccc(O)cc6CC[C@@H]5c5ccccc5)cc3)CC4)C2)C(=O)N1 (some centres unmarked) [A37] | – | – | 8% | 35% | -12% | 15% | 7 nM | 37 nM
7 | O=C1CCC(N2Cc3cc4c(cc3C2=O)OCC2(CCN(CC3CCC5(CC3)CCN(c3ccc([C@@H]6c7ccc(O)cc7CC[C@@H]6c6ccccc6)cc3)CC5)CC2)O4)C(=O)N1 (some centres unmarked) [A39] | – | – | -27% | 6% | -16% | 11% | 41 nM | 30 nM
8 | O=C1CCC(N2Cc3cc4c(cc3C2=O)OC2(CC4)CCN(CC3CCC4(CC3)CCN(c3ccc([C@@H]5c6ccc(O)cc6CC[C@@H]5c5ccccc5)cc3)CC4)CC2)C(=O)N1 (some centres unmarked) [A40] | – | – | 35% | 25% | 15% | 6% | 13 nM | 76 nM
9 | O=C1CCC(N2C(=O)c3cc4c(cc3C2=O)OC2(CC4)CN(CC3CCC4(CC3)CCN(c3ccc([C@@H]5c6ccc(O)cc6CC[C@@H]5c5ccccc5)cc3)CC4)C2)C(=O)N1 (some centres unmarked) [A41] | – | – | -18% | 17% | -9% | 8% | 23 nM | 33 nM
10 | O=C1CCC(N2C(=O)c3cc4c(cc3C2=O)OCC2(CCN(CC3CCC5(CC3)CCN(c3ccc([C@@H]6c7ccc(O)cc7CC[C@@H]6c6ccccc6)cc3)CC5)CC2)C4)C(=O)N1 (some centres unmarked) [A42] | – | – | -36% | 30% | -49% | 41% | 60 nM | 38 nM
